In PubChem BioAssay AID1508591:

Settings: rat; liver microsomes; pH 7.4; 15.0 min; 1.0 µM

SMILES	half-life
Oc1ccc(-c2nc(C3CC3)nc3c2CCN(Cc2ccc(F)cc2)CC3)cc1	2.02 min
CCOc1ccc(CCNC(=O)c2cc3sccc3n2CCN2CCN(C)CC2)cc1OCC	6.2 min
COC(=O)CSc1nc(-c2ccccc2)cc(-c2ccco2)c1C#N	1 min
CNc1nc(-c2ccc3c(N)n[nH]c3c2)cc(N2C[C@@H](C(=O)NC3CCCCC3)CC[C@@H]2C)n1	1.85 min
CC1=C(C(=O)Nc2nnc(-c3ccccc3)s2)C(c2nn(C)cc2Cl)N=C(Nc2nc3ccccc3o2)N1 (stereo unspecified)	11 min
Cc1ccc(S(=O)(=O)Nc2cnccc2C(=O)Nc2nc(-c3cccc(F)c3)cs2)cc1	27 min
COc1ccc(-c2nc(N3CCOCC3)c3sc(CN(C)c4ncc(C(=O)NO)cn4)cc3n2)cn1	> 30 min
O=c1c(-c2cccs2)ccc2n1C[C@H]1C[C@@H]2CN(C2CCOCC2)C1	14.6 min
CC(C)Oc1ccc(CNC(=O)C2CCN(C(=O)N3CCOc4ccc(Cl)cc43)CC2)cc1	9.17 min
OCc1ccc(-c2cc3c(ccn3Cc3cccnc3)c(C3=CCOCC3)n2)cc1	4.89 min
Cc1ccccc1S(=O)(=O)N1CCc2cc(-c3nc(NC(=O)Cc4ccc5c(c4)OCO5)sc3C)ccc21	5 min
CCOc1ccc(CNC(=O)CCCn2nc(C)c3c(C)n(-c4ccc(C)cc4)nc3c2=O)cc1	3.01 min
c1cc(-c2cc(-c3ccncc3)c3cncn3c2)c2[nH]ccc2c1	7.16 min
O=C(Nc1ccc(S(=O)(=O)Nc2ncc(-c3ccccc3)s2)cc1)c1ccc2ccccc2c1	> 30 min
C[C@]12N[C@H](Cc3ccccc31)c1ccccc12	> 30 min
C[S+](=O)([O-])N1CCC(Cn2ccc3c(N4CCOCC4)nc(-c4cccc5[nH]ccc45)cc32)CC1	15.9 min
Cc1csc2nc(-c3cccc(NC(=O)c4ccccc4Cl)c3)cn12	0.9 min
Clc1ccc2ncc(-c3cccc(NC4CNC4)n3)n2c1	13.6 min
CC[C@H]1CN(C)[C@H]2Cc3c([nH]c4ccccc34)C(=O)C[C@H]1[C@H]2C(=O)OC	11.3 min
CCN1CCN(CCCOc2ccc(-c3ccccc3)cc2)CC1	7.9 min
CCOc1ccc(NC(=O)CC2C(=O)N(c3ccc(F)cc3)C(=O)N2CCc2sccc2C)cc1 (stereo unspecified)	1.33 min
Cc1ccccc1C(=O)N1CCc2cc(-c3nc(NC(=O)Cc4ccc5c(c4)OCCO5)sc3C)ccc21	22 min
Oc1ccccc1CN1CCNc2cc(Nc3ccccc3)ncc2C1	1.79 min
CC(=O)c1c(C)c2cnc(Nc3ccc(N4CCNCC4)cn3)nc2n(C2CCCC2)c1=O	> 30 min

SMILES	half-life
c1ccc(-c2nc(N3CCCCCC3)c3ccccc3n2)nc1	2.18 min
CCOC(=O)c1nnc(N[S+](=O)([O-])c2ccc(NC(=O)Cc3ccc(Cl)c(Cl)c3)cc2)s1	6 min
CC(C)CN(C[C@@H](O)[C@H](Cc1ccccc1)NC(=O)O[C@@H]1CO[C@H]2OCC[C@H]21)S(=O)(=O)c1ccc(N)cc1	13.8 min
O=C1CCCC2=C1C(C1CCCCC1Cl)N=C(NC1NC3CCCCC3S1)N2 (stereo unspecified)	10.9 min
O=C(Nc1nnc(C2CCCCC2)s1)c1ccc(Br)s1	> 30 min
COc1ccc(NC(=O)C2=C(C)NC(Nc3nc4ccccc4o3)=NC2c2ccccc2Br)cc1 (stereo unspecified)	21 min
C#C[C@]1(OC(C)=O)CC[C@H]2[C@@H]3CCC4=C/C(=N/O)CC[C@@H]4[C@H]3CC[C@@]21CC	3.98 min
O=C(Nc1ncccc1O)c1ccc(S(=O)(=O)Nc2ccccc2)cc1	2.58 min
CN(C)c1cccc(-c2ccnc(N3CCC(C(N)=O)CC3)n2)c1	1.67 min
O=C1Cc2cc(C(=O)c3ccco3)ccc2N1	20 min
COc1ccccc1CNc1ccc(N2CCCCC2)cc1	2.19 min
COc1ccc(CCNc2ncnc3onc(C)c23)c(OC)c1	2.23 min
O=C(Nc1nc(-c2ccccc2)cs1)c1ccncc1NS(=O)(=O)c1ccccc1F	7 min
N#Cc1ccc(-c2csc(N3CCC(C(N)=O)CC3)n2)cc1	16.2 min
Cc1ccc(-c2cc(C(=O)Nc3ccccn3)c3ccccc3n2)cc1	23.8 min
CC1(C)CCC(CN2CCN(c3ccc(C(=O)NS(=O)(=O)c4ccc(NCC5CCOCC5)c([N+](=O)[O-])c4)c(Oc4cnc5[nH]ccc5c4)c3)CC2)=C(c2ccc(Cl)cc2)C1	> 30 min
CC(C)c1ccccc1-c1ncc(F)c(NC(C)(C)c2ccc(-c3cccnc3)cc2)n1	2.3 min
C[C@@H]1Cc2c([nH]c3cc(Cl)c(F)cc23)[C@]2(N1)C(=O)Nc1ccc(Cl)cc12	> 30 min
Fc1cccc(-c2ccc(Nc3nc(-c4ccncc4)nc4ccccc34)cc2F)c1	> 30 min
O=C(NCc1ccccc1)C1CCN(c2nc(-c3ccc(Br)cc3)cs2)CC1	1.75 min
CCCc1cc(C)[nH]c(=O)c1CNC(=O)c1cc(-c2ccnc(N3CCN(C)CC3)c2)cc2c1cnn2C(C)C	27.2 min
COc1cc(-c2c(C#N)c(N)nc3c2c(C)nn3-c2ccc(F)cc2)ccc1O	> 30 min
Cc1c(Cl)cccc1NC(=O)CNS(=O)(=O)c1cccs1	5.47 min
COc1ccc(-n2c(C)cc(C3=NNC(=NC4CC4)SC3)c2C)cc1	11.8 min

SMILES	half-life
Cc1ccc(S(=O)(=O)Nc2cnccc2C(=O)Nc2ccc(-n3cncn3)cc2)cc1	21 min
CCCc1ccc(NC(=O)c2ccc3c(c2)NC(=O)CS3)cc1	1.5 min
COc1cc2c(cc1-c1c(C)noc1C)ncc1[nH]c(=O)n([C@H](C)c3ccccn3)c12	> 30 min
CC[S+](=O)([O-])Nc1ccccc1C(=O)Nc1nc(-c2ccccc2)cs1	14 min
CC(=O)c1c(C)[nH]c(C(=O)Nc2cccc(S(=O)(=O)Nc3ccc(Br)cc3)c2)c1C	18 min
COc1c(Cl)cc2c([nH]c3cnccc32)c1NC(=O)c1cccnc1C	> 30 min
CC(=O)C1CCN(c2ncc(-c3cccc(N(C)C)c3)s2)CC1	2.51 min
CCOC(=O)c1ccnc2cc(C(OCCN3CCCCC3)c3ccccc3Cl)sc12 (stereo unspecified)	2.34 min
O=C(Nc1cccc(F)c1)c1cc(-c2ccc[nH]2)n[nH]1	9.45 min
Cc1cc(-c2nc(Nc3ccc(F)c(F)c3)c3ccccc3n2)cc(C)n1	> 30 min
CCOc1ccc(S(=O)(=O)NCc2cccnc2)cc1NC(=O)c1ccccc1F	2.82 min
O=[S+]([O-])(Nc1ccc(C2CCNCC2)cc1)c1ccc(NCc2ccc(Br)cc2O)cc1	> 30 min
C#CCNC(=O)c1nc(-c2ccc([S+](C)(=O)[O-])cc2)c2cnccn12	> 30 min
O=C(c1cnn(-c2cccc(F)c2)c1-n1cccc1)N1CCN(c2ccccc2F)CC1	1.93 min
Cc1cnc(CNc2nc(-c3cccc(NS(C)(=O)=O)c3)nc3ccccc23)cn1	21 min
Cc1ccc2c(c1)/C(=C\c1cc(Cl)c(O)c(Cl)c1)C(=O)N2	22 min
Cc1ccc(S(=O)(=O)Nc2cnccc2C(=O)Nc2nc3ccccc3s2)cc1	4.1 min
CC(C)(C)c1ccc(SC2=NS(=O)(=O)c3ccccc32)cc1	1.74 min
CCn1cc(C(=O)N2CCN(c3cccc(Cl)c3)CC2)c2cc(OC)c(OC)cc2c1=O	7.12 min
Cc1ccc(C(=O)[C@H]2CC[C@@H](C(=O)Nc3ccc(S(=O)(=O)Nc4nccs4)cc3)C2)cc1C	2.5 min
CN(Cc1ccccc1)C(=O)C1CCN(Cc2cccc3ccccc23)CC1	2.4 min
CC(=O)N1CCN(c2ccc(OCc3nn(C)c(C)c3-c3cccc4c(CCCOc5cccc6ccccc56)c(C(=O)O)n(Cc5cccnc5)c34)cc2)CC1	15 min
N#C/C(=C\c1ccc(Sc2ccc(Cl)cc2)o1)c1nc2ccccc2[nH]1	7.56 min
